The values below are quoted from earlier work in patent publication US20220160693A1, “PHARMACEUTICAL COMPOSITION OF PROLYL HYDROXYLASE INHIBITOR AND PREPARATION METHOD THEREFOR” (Jiangsu Hengrui Medicine Co., Ltd., priority 2019, published 2022).

The series concerns prolyl hydroxylase.

Consider `O=C(O)CNC(=O)c1ncc(C#CCOc2ccc(Cl)cc2)cc1O` [compound of formula (I), 2-(3-hydroxy-5-(3-p-chlorophenoxypropyn-1-yl))picolinamido acetic acid], for which the “Inhibition effect on prolyl hydroxylase (in words)” value is “excellent inhibition effect”.
